# Tested on: Rattus norvegicus
# Test: Antiinflammatory activity in Wistar rat assessed as inhibition of carrageenan-induced paw edema at 20 mg/kg, po administered 30 mins before carrageenan challenge measured after 3 hrs
# Type: functional
# Settings: not given
row,SMILES,inhibition in vivo at 20 mg/kg [%]
1,COc1ccc(C2CC(c3c(O)cc(C)c(Cl)c3C)=NN2c2ccc(S(N)(=O)=O)cc2)cc1 (stereo not drawn),46.7

# Tested on: HCT-116
# Test: Antiproliferative activity against human HCT116 cells assessed as cell growth at 10^-5 M after 48 hrs by SRB assay relative to control
# Type: functional
# Settings: HCT-116, 48 h, read-out: Activity
row,SMILES,growth at 10 µM [%]
1,COc1ccc(C2CC(c3c(O)cc(C)c(Cl)c3C)=NN2c2ccc(S(N)(=O)=O)cc2)cc1 (stereo not drawn),75.5

# Tested on: MDA-MB-231
# Test: Antiproliferative activity against human MDA-MB-231 cells assessed as cell growth at 10^-5 M after 48 hrs by SRB assay relative to control
# Type: functional
# Settings: MDA-MB-231, 48 h, read-out: Activity
row,SMILES,growth at 10 µM [%]
1,COc1ccc(C2CC(c3c(O)cc(C)c(Cl)c3C)=NN2c2ccc(S(N)(=O)=O)cc2)cc1 (stereo not drawn),71

# Tested on: T47D
# Test: Antiproliferative activity against human T47D cells assessed as cell growth at 10^-5 M after 48 hrs by SRB assay relative to control
# Type: functional
# Settings: read-out: Activity
row,SMILES,growth at 10 µM [%]
1,COc1ccc(C2CC(c3c(O)cc(C)c(Cl)c3C)=NN2c2ccc(S(N)(=O)=O)cc2)cc1 (stereo not drawn),62.1

# Tested on: SF-268
# Test: Antiproliferative activity against human SF268 cells assessed as cell growth at 10^-5 M after 48 hrs by SRB assay relative to control
# Type: functional
# Settings: SF-268, 48 h, read-out: Activity
row,SMILES,growth at 10 µM [%]
1,COc1ccc(C2CC(c3c(O)cc(C)c(Cl)c3C)=NN2c2ccc(S(N)(=O)=O)cc2)cc1 (stereo not drawn),76.1

# Tested on: NCI-H322M
# Test: Antiproliferative activity against human NCI-H322M cells assessed as cell growth at 10^-5 M after 48 hrs by SRB assay relative to control
# Type: functional
# Settings: read-out: Activity
row,SMILES,growth at 10 µM [%]
1,COc1ccc(C2CC(c3c(O)cc(C)c(Cl)c3C)=NN2c2ccc(S(N)(=O)=O)cc2)cc1 (stereo not drawn),85.1

# Tested on: NCI-H460
# Test: Antiproliferative activity against human NCI-H460 cells assessed as cell growth at 10^-5 M after 48 hrs by SRB assay relative to control
# Type: functional
# Settings: NCI-H460, 48 h, read-out: Activity
row,SMILES,growth at 10 µM [%]
1,COc1ccc(C2CC(c3c(O)cc(C)c(Cl)c3C)=NN2c2ccc(S(N)(=O)=O)cc2)cc1 (stereo not drawn),62

# Tested on: CCRF-CEM
# Test: Antiproliferative activity against human CCRF-CEM cells assessed as cell growth at 10^-5 M after 48 hrs by SRB assay relative to control
# Type: functional
# Settings: read-out: Activity
row,SMILES,growth at 10 µM [%]
1,COc1ccc(C2CC(c3c(O)cc(C)c(Cl)c3C)=NN2c2ccc(S(N)(=O)=O)cc2)cc1 (stereo not drawn),38.7

# Tested on: NCI-H522
# Test: Antiproliferative activity against human NCI-H522 cells assessed as cell growth at 10^-5 M after 48 hrs by SRB assay relative to control
# Type: functional
# Settings: NCI-H522, 48 h, read-out: Activity
row,SMILES,growth at 10 µM [%]
1,COc1ccc(C2CC(c3c(O)cc(C)c(Cl)c3C)=NN2c2ccc(S(N)(=O)=O)cc2)cc1 (stereo not drawn),71.5

# Tested on: Malme-3M
# Test: Antiproliferative activity against human MALME-3M cells assessed as cell growth at 10^-5 M after 48 hrs by SRB assay relative to control
# Type: functional
# Settings: read-out: Activity
row,SMILES,growth at 10 µM [%]
1,COc1ccc(C2CC(c3c(O)cc(C)c(Cl)c3C)=NN2c2ccc(S(N)(=O)=O)cc2)cc1 (stereo not drawn),138

# Tested on: DU-145
# Test: Antiproliferative activity against human DU145 cells assessed as cell growth at 10^-5 M after 48 hrs by SRB assay relative to control
# Type: functional
# Settings: DU-145, 48 h, read-out: Activity
row,SMILES,growth at 10 µM [%]
1,COc1ccc(C2CC(c3c(O)cc(C)c(Cl)c3C)=NN2c2ccc(S(N)(=O)=O)cc2)cc1 (stereo not drawn),92.4

# Tested on: A549
# Test: Antiproliferative activity against human A549 cells assessed as cell growth at 10^-5 M after 48 hrs by SRB assay relative to control
# Type: functional
# Settings: A549, 48 h, read-out: Activity
row,SMILES,growth at 10 µM [%]
1,COc1ccc(C2CC(c3c(O)cc(C)c(Cl)c3C)=NN2c2ccc(S(N)(=O)=O)cc2)cc1 (stereo not drawn),56

# Tested on: SF-295
# Test: Antiproliferative activity against human SF295 cells assessed as cell growth at 10^-5 M after 48 hrs by SRB assay relative to control
# Type: functional
# Settings: SF-295, 48 h, read-out: Activity
row,SMILES,growth at 10 µM [%]
1,COc1ccc(C2CC(c3c(O)cc(C)c(Cl)c3C)=NN2c2ccc(S(N)(=O)=O)cc2)cc1 (stereo not drawn),152

# Tested on: MCF7
# Test: Antiproliferative activity against human MCF7 cells assessed as cell growth at 10^-5 M after 48 hrs by SRB assay relative to control
# Type: functional
# Settings: MCF7, 48 h, read-out: Activity
row,SMILES,growth at 10 µM [%]
1,COc1ccc(C2CC(c3c(O)cc(C)c(Cl)c3C)=NN2c2ccc(S(N)(=O)=O)cc2)cc1 (stereo not drawn),71.6

# Tested on: IGROV-1
# Test: Antiproliferative activity against human IGROV1 cells assessed as cell growth at 10^-5 M after 48 hrs by SRB assay relative to control
# Type: functional
# Settings: IGROV-1, 48 h, read-out: Activity
row,SMILES,growth at 10 µM [%]
1,COc1ccc(C2CC(c3c(O)cc(C)c(Cl)c3C)=NN2c2ccc(S(N)(=O)=O)cc2)cc1 (stereo not drawn),71.9

# Tested on: HL-60(TB)
# Test: Antiproliferative activity against human HL-60(TB) cells assessed as cell growth at 10^-5 M after 48 hrs by SRB assay relative to control
# Type: functional
# Settings: HL-60, 48 h, read-out: Activity
row,SMILES,growth at 10 µM [%]
1,COc1ccc(C2CC(c3c(O)cc(C)c(Cl)c3C)=NN2c2ccc(S(N)(=O)=O)cc2)cc1 (stereo not drawn),69.1

# Tested on: SK-MEL-28
# Test: Antiproliferative activity against human SK-MEL-28 cells assessed as cell growth at 10^-5 M after 48 hrs by SRB assay relative to control
# Type: functional
# Settings: SK-MEL-28, 48 h, read-out: Activity
row,SMILES,growth at 10 µM [%]
1,COc1ccc(C2CC(c3c(O)cc(C)c(Cl)c3C)=NN2c2ccc(S(N)(=O)=O)cc2)cc1 (stereo not drawn),96.7

# Tested on: NCI/ADR-RES
# Test: Antiproliferative activity against human NCI/ADR-RES cells assessed as cell growth at 10^-5 M after 48 hrs by SRB assay relative to control
# Type: functional
# Settings: read-out: Activity
row,SMILES,growth at 10 µM [%]
1,COc1ccc(C2CC(c3c(O)cc(C)c(Cl)c3C)=NN2c2ccc(S(N)(=O)=O)cc2)cc1 (stereo not drawn),101

# Tested on: SNB-19
# Test: Antiproliferative activity against human SNB19 cells assessed as cell growth at 10^-5 M after 48 hrs by SRB assay relative to control
# Type: functional
# Settings: SNB-19, 48 h, read-out: Activity
row,SMILES,growth at 10 µM [%]
1,COc1ccc(C2CC(c3c(O)cc(C)c(Cl)c3C)=NN2c2ccc(S(N)(=O)=O)cc2)cc1 (stereo not drawn),92.7

# Tested on: UACC-62
# Test: Antiproliferative activity against human UACC62 cells assessed as cell growth at 10^-5 M after 48 hrs by SRB assay relative to control
# Type: functional
# Settings: UACC-62, 48 h, read-out: Activity
row,SMILES,growth at 10 µM [%]
1,COc1ccc(C2CC(c3c(O)cc(C)c(Cl)c3C)=NN2c2ccc(S(N)(=O)=O)cc2)cc1 (stereo not drawn),74

# Tested on: SW-620
# Test: Antiproliferative activity against human SW620 cells assessed as cell growth at 10^-5 M after 48 hrs by SRB assay relative to control
# Type: functional
# Settings: SW-620, 48 h, read-out: Activity
row,SMILES,growth at 10 µM [%]
1,COc1ccc(C2CC(c3c(O)cc(C)c(Cl)c3C)=NN2c2ccc(S(N)(=O)=O)cc2)cc1 (stereo not drawn),94.8

# Tested on: OVCAR-3
# Test: Antiproliferative activity against human OVCAR3 cells assessed as cell growth at 10^-5 M after 48 hrs by SRB assay relative to control
# Type: functional
# Settings: OVCAR-3, 48 h, read-out: Activity
row,SMILES,growth at 10 µM [%]
1,COc1ccc(C2CC(c3c(O)cc(C)c(Cl)c3C)=NN2c2ccc(S(N)(=O)=O)cc2)cc1 (stereo not drawn),102

# Tested on: SR
# Test: Antiproliferative activity against human SR cells assessed as cell growth at 10^-5 M after 48 hrs by SRB assay relative to control
# Type: functional
# Settings: read-out: Activity
row,SMILES,growth at 10 µM [%]
1,COc1ccc(C2CC(c3c(O)cc(C)c(Cl)c3C)=NN2c2ccc(S(N)(=O)=O)cc2)cc1 (stereo not drawn),41.5

# Tested on: HCT-15
# Test: Antiproliferative activity against human HCT15 cells assessed as cell growth at 10^-5 M after 48 hrs by SRB assay relative to control
# Type: functional
# Settings: HCT-15, 48 h, read-out: Activity
row,SMILES,growth at 10 µM [%]
1,COc1ccc(C2CC(c3c(O)cc(C)c(Cl)c3C)=NN2c2ccc(S(N)(=O)=O)cc2)cc1 (stereo not drawn),92.2

# Tested on: COLO 205
# Test: Antiproliferative activity against human COLO205 cells assessed as cell growth at 10^-5 M after 48 hrs by SRB assay relative to control
# Type: functional
# Settings: COLO 205, 48 h, read-out: Activity
row,SMILES,growth at 10 µM [%]
1,COc1ccc(C2CC(c3c(O)cc(C)c(Cl)c3C)=NN2c2ccc(S(N)(=O)=O)cc2)cc1 (stereo not drawn),102

# Tested on: NCI-H23
# Test: Antiproliferative activity against human NCI-H23 cells assessed as cell growth at 10^-5 M after 48 hrs by SRB assay relative to control
# Type: functional
# Settings: NCI-H23, 48 h, read-out: Activity
row,SMILES,growth at 10 µM [%]
1,COc1ccc(C2CC(c3c(O)cc(C)c(Cl)c3C)=NN2c2ccc(S(N)(=O)=O)cc2)cc1 (stereo not drawn),108

# Tested on: MDA-MB-468
# Test: Antiproliferative activity against human MDA-MB-468 cells assessed as cell growth at 10^-5 M after 48 hrs by SRB assay relative to control
# Type: functional
# Settings: MDA-MB-468, 48 h, read-out: Activity
row,SMILES,growth at 10 µM [%]
1,COc1ccc(C2CC(c3c(O)cc(C)c(Cl)c3C)=NN2c2ccc(S(N)(=O)=O)cc2)cc1 (stereo not drawn),91.5

# Tested on: SF-539
# Test: Antiproliferative activity against human SF539 cells assessed as cell growth at 10^-5 M after 48 hrs by SRB assay relative to control
# Type: functional
# Settings: SF-539, 48 h, read-out: Activity
row,SMILES,growth at 10 µM [%]
1,COc1ccc(C2CC(c3c(O)cc(C)c(Cl)c3C)=NN2c2ccc(S(N)(=O)=O)cc2)cc1 (stereo not drawn),92.3

# Tested on: PC-3
# Test: Antiproliferative activity against human PC3 cells assessed as cell growth at 10^-5 M after 48 hrs by SRB assay relative to control
# Type: functional
# Settings: PC-3, 48 h, read-out: Activity
row,SMILES,growth at 10 µM [%]
1,COc1ccc(C2CC(c3c(O)cc(C)c(Cl)c3C)=NN2c2ccc(S(N)(=O)=O)cc2)cc1 (stereo not drawn),56.2

# Tested on: SK-OV-3
# Test: Antiproliferative activity against human SKOV3 cells assessed as cell growth at 10^-5 M after 48 hrs by SRB assay relative to control
# Type: functional
# Settings: SK-OV-3, 48 h, read-out: Activity
row,SMILES,growth at 10 µM [%]
1,COc1ccc(C2CC(c3c(O)cc(C)c(Cl)c3C)=NN2c2ccc(S(N)(=O)=O)cc2)cc1 (stereo not drawn),101

# Tested on: MOLT-4
# Test: Antiproliferative activity against human MOLT4 cells assessed as cell growth at 10^-5 M after 48 hrs by SRB assay relative to control
# Type: functional
# Settings: MOLT-4, 48 h, read-out: Activity
row,SMILES,growth at 10 µM [%]
1,COc1ccc(C2CC(c3c(O)cc(C)c(Cl)c3C)=NN2c2ccc(S(N)(=O)=O)cc2)cc1 (stereo not drawn),36.5

# Tested on: RXF 393
# Test: Antiproliferative activity against human RXF393 cells assessed as cell growth at 10^-5 M after 48 hrs by SRB assay relative to control
# Type: functional
# Settings: RXF 393, 48 h, read-out: Activity
row,SMILES,growth at 10 µM [%]
1,COc1ccc(C2CC(c3c(O)cc(C)c(Cl)c3C)=NN2c2ccc(S(N)(=O)=O)cc2)cc1 (stereo not drawn),111

# Tested on: ACHN
# Test: Antiproliferative activity against human ACHN cells assessed as cell growth at 10^-5 M after 48 hrs by SRB assay relative to control
# Type: functional
# Settings: read-out: Activity
row,SMILES,growth at 10 µM [%]
1,COc1ccc(C2CC(c3c(O)cc(C)c(Cl)c3C)=NN2c2ccc(S(N)(=O)=O)cc2)cc1 (stereo not drawn),96.7
